From US7772228B2, “Method for treatment of bacterial infections with once or twice-weekly administered rifalazil” (priority 1998, dated 2010)
Converted amounts (≈) assume the structure as drawn. Read-outs that look alike come from different tables or passages of the source.

Legend:
[1] = clinical; settings: human, in vivo
Text: Attempts were made to analyze the multiple-dose pharmacokinetics using a linear 3-compartment model, and a 3-compartment model incorporating enzyme induction. However, neither multi-compartmental model accurately characterized the pharmacokinetic parameters in all subjects. Daily dosing and related early terminations due to adverse reactions, differences in bioavailability from a food effect, and nonconnective dose administration further complicated these analyses. Therefore, only noncompartmental pharmacokinetic parameters were derived for clinical trials 003 and 004. For the 004 clinical trial, the pharmacokinetic analysis of this multiple-dose study was limited to a comparison of the noncompartmental parameters obtained from the first dose (Day 1) data versus the fourth (last) dose (Day 22). Because of extensive sampling after the fourth dose, this study yielded the most complete data about terminal elimination of rifalazil given in a multiple-dose regimen.

[2] = test system: extracellular M. tuberculosis; settings: cited from earlier work
[3] = in vivo; set-up: species or system rats; settings: rat
Protocol: (§1) In chronic studies with dogs and rats, the no-observed-adverse-effect-level was 1000 mg/kg. […] Significant partitioning of drug-related radioactivity to the formed elements of the blood was observed. […] The urine contained a small amount (5.5%) of radioactivity.
Pharmacokinetic parameters were determined following single and multiple doses in rats and dogs. The doses in rats and dogs were based upon those utilized in the single and multiple-dose toxicology studies. In addition, the absorption, distribution, metabolism, and elimination of rifalazil was studied in rats and dogs. These studies confirmed prior findings that there are species differences vis-a-vis sensitivity to and response to treatment with rifalazil.

[4] = test system: M. tuberculosis; settings: cited from earlier work
[5] = test system: M. tuberculosis; settings: cited from earlier work; remark: listed apart in the source
[6] = test system: M. avium; test: Rabbit model of M. avium infection; assay type: in vivo; settings: compared to controls
[7] = Multiple-dose oral toxicology studies in rats; assay type: in vivo
Protocol: as §1
Single-dose and multiple-dose oral toxicology studies were conducted in mice, rats, and dogs. In addition, to maximize systemic exposure, single-dose intravenous (IV) and intraperitoneal (IP) studies were conducted in rats and mice. Four-week and 13-week oral studies in dogs and rats and 26-week oral studies in rats included standard clinical measurements and physical and pathological evaluations.

[8] = human, in vivo
Protocol: The fourth trial (004) was a also a randomized, rising, double-blind, multiple-dose, placebo-controlled study. In this trial, weekly doses of placebo or rifalazil (25 mg or 50 mg) were administered to the subjects for a total of 4 weeks. All subjects received the dose within 30 minutes after eating a standardized breakfast and were monitored for an additional 14 days after the last dose. Four subjects were randomized to placebo, six subjects to 25 mg rifalazil, and eight subjects to 50 mg rifalazil.
Laboratory testing regimen for 003 and 004 trials was the same as for 001 and 002 trials.
Results obtained in 004 clinical trial where the healthy volunteers received only one dose a week for four weeks are seen in FIGS. 8-10.

[9] = Ref. 7, 7H11 agar, 22 strains (rif^r and rif^s)

SMILES: CO[C@H]1/C=C/O[C@@]2(C)Oc3c(C)c(O)c4c(=O)c(c5oc6cc(N7CCN(CC(C)C)CC7)cc(O)c6nc-5c4c3C2=O)NC(=O)/C(C)=C\C=C\[C@H](C)[C@H](O)[C@@H](C)[C@@H](O)[C@@H](C)[C@H](OC(C)=O)[C@@H]1C [Rifalazil, 3′-hydroxy-5′-(4-isobutyl-1-piperazinyl)benzoxasinorifamycin]
- increase of AUC(0-24) on Day 22 relative to Day 1 ([1]; 25 mg): approximately 17%
- half-life ([1]; 25 mg, apparent terminal half-life, range): 29.5 to 107 h
- increase of AUC(0-24) on Day 22 relative to Day 1 ([1]; 50 mg): ~27%
- half-life ([1]; 50 mg, apparent terminal half-life, range): 65.9 to 148 h
- half-life ([1]; Half-life distribution t½ (mean)): 10.5 h
- half-life ([1]; Half-life elimination t½ (mean)): ~61 h
- Tmax ([1]; Tmax (mean)): 5.7 h
- MBC ([2]; strain Atencio): 8 ng/mL (≈ 8.5 nM)
- MIC ([2]; strain Atencio): 1 ng/mL (≈ 1.06 nM)
- MBC ([2]; strain Erdman): 4 ng/mL (≈ 4.25 nM)
- MIC ([2]; strain Erdman): 2 ng/mL (≈ 2.13 nM)
- MBC ([2]; strain H37Rv): 31 ng/mL (≈ 32.9 nM)
- MIC ([2]; strain H37Rv): 8 ng/mL (≈ 8.5 nM)
- CL/F ([3]; female): 3.62 mL/min/kg
- CL/F ([3]; male): 3.07 mL/min/kg
- half-life [3]: 12.5 h
- radioactivity in the urine [3]: 5.5%
- radioactivity recovered in the feces [3]: 84%
- bioavailability ([3]; 3 mg/kg): 30 to 40%
- lesions in the lung ([4]; 10 mg/kg six times a week): no lesions observed in the lung
- reduction of log CFU in lungs ([4]; 10 mg/kg six times a week): about 80%
- reduction of the bacteria ([4]; Twice-a-week or once-a-week administration): about 35%
- reduction in CFU ([4]; once-a-week administration of these very high dosages): about 42%
- MIC90 ([5]; 22 strains, agar dilution): 12500 ng/mL (≈ 13300 nM)
- MIC90 [5, 9]: 12500 ng/mL (≈ 13300 nM)
- MIC Range [5, 9]: ≦0.0125 to 12.5^ μg/mL
- MIC90 ([5]; Ref. 8, 7H11 agar, 16 strains (rif^s)): ≦0.0125 μg/mL
- bacterial load on organs [6]: reduced the bacterial load on organs compared to controls
- doses with dose-related lymphocytic depletion in the spleens ([7]; 26-week study): > 30 mg/kg/day
- no-observed-adverse-effect-level ([7]; chronic studies, rats): 1000 mg/kg
- doses at which hematological changes were noted ([7]; multiple-dose oral, rats): > 30 mg/kg
- time for hematologic parameters to return to normal after the last dose [8]: ≤ 14 days
